Values quoted from earlier work as cited in patent US20100215746A1, “PREVENTION OF CISPLATIN INDUCED DEAFNESS” (THE REGENTS OF THE UNIVERSITY OF MICHIGAN, priority 2002, published 2010).

Assays:
[1] = test system: neuropathic and ototoxic effects of cisplatin; settings: co-administration with cisplatin
hearing = settings: human, in vivo

Row | SMILES | effectiveness in ameliorating neuropathic and ototoxic effects of cisplatin [1] | reported incidence of cisplatin-induced hearing loss (hearing)
1 | NCCCNCCSP(=O)(O)O [amifostine] | does not appear to be effective | –
2 | N.N.[Cl][Pt][Cl] [cisplatin] | – | 9-90%
